Data reported in patent publication US20200199102A1, “COMPOUNDS THAT PARTICIPATE IN COOPERATIVE BINDING AND USES THEREOF” (Revolution Medicines, Inc., priority 2017, published 2020).
Where a SMILES comes first, the peptide text is derived from it. [ ]: non-standard residue; d: D form. MeBmt = C/C=C/C[C@@H](C)[C@@H](O)[C@H](NC)C(=O)O; NMeY = CN[C@@H](Cc1ccc(O)cc1)C(=O)O; NMeF = CN[C@@H](Cc1ccccc1)C(=O)O; NMeI = CC[C@H](C)[C@H](NC)C(=O)O; NMeT = CN[C@H](C(=O)O)[C@@H](C)O; NMeL = CN[C@@H](CC(C)C)C(=O)O; NMeNle = CCCC[C@H](NC)C(=O)O; Tle = CC(C)(C)[C@H](N)C(=O)O; NMeNva = CCC[C@H](NC)C(=O)O; NMeV = CN[C@H](C(=O)O)C(C)C; NMeA = CN[C@@H](C)C(=O)O; dNMeA = CN[C@H](C)C(=O)O; Abu = CC[C@H](N)C(=O)O; Sar = CNCC(=O)O

Target: T1, Cyclophilin A (Homo sapiens, UniProt P62937)
T1 construct: made in house
T1 sequence (P62937 whole entry, species assumed): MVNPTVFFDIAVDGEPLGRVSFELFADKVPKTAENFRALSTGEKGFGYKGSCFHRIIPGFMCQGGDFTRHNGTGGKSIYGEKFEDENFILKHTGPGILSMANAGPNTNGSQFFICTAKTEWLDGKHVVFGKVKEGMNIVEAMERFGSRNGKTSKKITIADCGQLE
Test: AlphaLISA inhibition of binding of biotinylated Cyclosporin A to FLAG tagged Cyclophilin A
Conditions: for % signal: AlphaLISA signal; for % signal / % inhibition of CsA binding to Cyclophilin A: test concentration not given; for IC50: read-out: IC50 value of CsA binding to Cyclophilin A
Source text: The binding of compounds of the invention to Cyclophilin A can be determined using the following protocol.
This protocol utilizes Perkin Elmers AlphaLISA technology platform to detect cyclosporine analogues by measuring the inhibition of binding of biotinylated Cyclosporin A to FLAG tagged Cyclophilin A.
10×TBST Buffer (Boston BioProducts IBB-181), Biotinylated Cyclosporin A (in-house), FLAG tagged Cyclophilin A (in-house); anti-FLAG Donor beads (PerkinElmer AS103) and Streptavidin Acceptor beads (PerkinElmer AL125); Compounds in DMSO (in-house), Cyclosporin A (LC Labs Cat #C-6000).
Add 20 uL of 6 nM Biotinylated CsA working stock to each well of the 96-well plate. Add 1 uL of test compound (100% DMSO) to each well of the plate using the Janus MTD head and P20 tips (except control wells). Add 1 uL of DMSO to negative control wells and 1 uL of 500 uM Cyclosporin A solution to positive control wells. In the dark, add 20 uL of combined Donor/Acceptor beads to each well. Incubate in the dark for 30 minutes at room temperature. In the dark, add 10 uL of 25 nM Flag tagged CypA working stock to each well. Incubate in the dark for 60 minutes at room temperature. Protect plate from light until reading on Biotek Synergy2 Plate Reader; Alphalisa 96-well protocol (680 excitation/615 emission).

## C/C=C/C[C@@H](C)[C@@H](O)[C@H]1C(=O)N[C@@H](CC)C(=O)N(C)CC(=O)N(C)[C@@H](CCC)C(=O)N[C@@H](C(C)C)C(=O)N(C)[C@@H](CC(C)C)C(=O)N[C@@H](CC)C(=O)N[C@H](C)C(=O)N(C)[C@@H](CC(C)C)C(=O)N(C)[C@@H](CC(C)C)C(=O)N(C)[C@@H](C(C)C)C(=O)N1C [Compound C102] (cyclo([Abu][Sar][NMeNva]V[NMeL][Abu][dA][NMeL][NMeL][NMeV][MeBmt]))
  % signal: 0.70%
  IC50: < 2000 nM

## C/C=C/C[C@@H](C)[C@@H](O)[C@H]1C(=O)N[C@@H](CC)C(=O)N(C)CC(=O)N(C)[C@@H]([C@@H](C)CC)C(=O)N[C@@H](C)C(=O)N(C)CC(=O)N[C@@H](C)C(=O)N[C@H](C)C(=O)N(C)[C@@H](CC(C)C)C(=O)N(C)[C@@H](CC(C)C)C(=O)N(C)[C@@H](C(C)C)C(=O)N1C [Compound C17] (cyclo([MeBmt][Abu][Sar][NMeI]A[Sar]A[dA][NMeL][NMeL][NMeV]))
  % signal: 17.17%
  IC50: < 2000 nM
  % inhibition of CsA binding to Cyclophilin A: 82.83%

## C/C=C/C[C@@H](C)[C@@H](O)[C@H]1C(=O)N[C@@H](CC)C(=O)N(C)CC(=O)N(C)[C@@H](CCCC)C(=O)N[C@@H](C(C)(C)C)C(=O)N(C)[C@@H](C)C(=O)N[C@@H](CC(C)C)C(=O)N[C@H](C)C(=O)N(C)[C@@H](CC(C)C)C(=O)N(C)[C@@H](CC(C)C)C(=O)N(C)[C@@H](C(C)C)C(=O)N1C [Compound C80] (cyclo([MeBmt][Abu][Sar][NMeNle][Tle][NMeA]L[dA][NMeL][NMeL][NMeV]))
  % signal: 3.35%
  IC50: < 2000 nM
  % inhibition of CsA binding to Cyclophilin A: 96.65%

## C/C=C/C[C@@H](C)[C@@H](O)[C@H]1C(=O)N[C@@H](CC)C(=O)N(C)CC(=O)N(C)[C@@H](Cc2ccccc2)C(=O)N[C@@H](C(C)C)C(=O)N(C)[C@@H](C)C(=O)N[C@@H](C)C(=O)N[C@H](C)C(=O)N(C)[C@@H](CC(C)C)C(=O)N(C)[C@@H](CC(C)C)C(=O)N(C)[C@@H](C(C)C)C(=O)N1C [Compound C4] (cyclo([MeBmt][Abu][Sar][NMeF]V[NMeA]A[dA][NMeL][NMeL][NMeV]))
  % signal: 4.12%
  IC50: < 2000 nM
  % inhibition of CsA binding to Cyclophilin A: 95.88%

## C/C=C/C[C@@H](C)[C@@H](O)[C@H]1C(=O)N[C@@H](CC)C(=O)N(C)CC(=O)N(C)CC(=O)N[C@@H](C(C)C)C(=O)N(C)CC(=O)N[C@@H](C)C(=O)N[C@H](C)C(=O)N(C)[C@@H](CC(C)C)C(=O)N(C)[C@@H](CC(C)C)C(=O)N(C)[C@@H](C(C)C)C(=O)N1C [Compound C28] (cyclo([MeBmt][Abu][Sar][Sar]V[Sar]A[dA][NMeL][NMeL][NMeV]))
  % signal: 1.06%
  IC50: < 2000 nM
  % inhibition of CsA binding to Cyclophilin A: 98.94%

## C/C=C/C[C@@H](C)[C@@H](O)[C@H]1C(=O)N[C@@H](CC)C(=O)N(C)CC(=O)N(C)[C@@H]([C@@H](C)CC)C(=O)N[C@@H](C(C)C)C(=O)N(C)CC(=O)N[C@@H](C)C(=O)N[C@H](C)C(=O)N(C)[C@@H](CC(C)C)C(=O)N(C)[C@@H](CC(C)C)C(=O)N(C)[C@@H](C(C)C)C(=O)N1C [Compound C25] (cyclo([MeBmt][Abu][Sar][NMeI]V[Sar]A[dA][NMeL][NMeL][NMeV]))
  % signal: 0.37%
  IC50: < 2000 nM

## C/C=C/C[C@@H](C)[C@@H](O)[C@H]1C(=O)N[C@@H](CC)C(=O)N(C)CC(=O)N(C)[C@@H](CC(C)C)C(=O)N[C@@H](C(C)C)C(=O)N(C)[C@@H](C)C(=O)N[C@@H](C)C(=O)N[C@H](C)C(=O)N(C)[C@@H](CC(C)C)C(=O)N(C)[C@@H](CC(C)C)C(=O)N(C)[C@@H](C(C)C)C(=O)N1C [Compound C6]
  % signal: 7.29%
  IC50: < 2000 nM
  % inhibition of CsA binding to Cyclophilin A: 92.71%

## C/C=C/C[C@@H](C)[C@@H](O)[C@H]1C(=O)N[C@@H](CC)C(=O)N(C)CC(=O)N(C)[C@@H](CC(C)C)C(=O)N[C@@H](C(C)(C)C)C(=O)N(C)[C@@H](C)C(=O)N[C@@H](CC(C)C)C(=O)N[C@H](C)C(=O)N(C)[C@@H](CC(C)C)C(=O)N(C)[C@@H](CC(C)C)C(=O)N(C)[C@@H](C(C)C)C(=O)N1C [Compound C74] (cyclo([MeBmt][Abu][Sar][NMeL][Tle][NMeA]L[dA][NMeL][NMeL][NMeV]))
  % signal: 4.92%
  IC50: < 2000 nM
  % inhibition of CsA binding to Cyclophilin A: 95.08%

## C/C=C/C[C@@H](C)[C@@H](O)[C@H]1C(=O)N[C@@H](CC)C(=O)N(C)CC(=O)N(C)[C@@H](CCCC)C(=O)N[C@@H](CC(C)C)C(=O)N(C)[C@@H](CC(C)C)C(=O)N[C@@H](CC(C)C)C(=O)N[C@H](C)C(=O)N(C)[C@@H](CC(C)C)C(=O)N(C)[C@@H](CC(C)C)C(=O)N(C)[C@@H](C(C)C)C(=O)N1C [Compound C68] (cyclo([MeBmt][Abu][Sar][NMeNle]L[NMeL]L[dA][NMeL][NMeL][NMeV]))
  % signal: 20.46%
  IC50: < 2000 nM
  % inhibition of CsA binding to Cyclophilin A: 79.54%

## C/C=C/C[C@@H](C)[C@@H](O)[C@H]1C(=O)N[C@@H](CC)C(=O)N(C)CC(=O)N(C)CC(=O)N[C@@H](C(C)C)C(=O)N(C)[C@@H](CC(C)C)C(=O)N[C@@H](CC)C(=O)N[C@H](C)C(=O)N(C)[C@@H](CC(C)C)C(=O)N(C)[C@@H](CC(C)C)C(=O)N(C)[C@@H](C(C)C)C(=O)N1C [Compound C97] (cyclo([Abu][Sar][Sar]V[NMeL][Abu][dA][NMeL][NMeL][NMeV][MeBmt]))
  % signal: 6.42%
  IC50: < 2000 nM
  % inhibition of CsA binding to Cyclophilin A: 93.58%

## C/C=C/C[C@@H](C)[C@@H](O)[C@H]1C(=O)N[C@@H](CC)C(=O)N(C)CC(=O)N(C)[C@@H](Cc2ccc(O)cc2)C(=O)N[C@@H](C(C)(C)C)C(=O)N(C)[C@@H](C)C(=O)N[C@@H](CC(C)C)C(=O)N[C@H](C)C(=O)N(C)[C@@H](CC(C)C)C(=O)N(C)[C@@H](CC(C)C)C(=O)N(C)[C@@H](C(C)C)C(=O)N1C [Compound C76] (cyclo([MeBmt][Abu][Sar][NMeY][Tle][NMeA]L[dA][NMeL][NMeL][NMeV]))
  % signal: 5.09%
  IC50: < 2000 nM
  % inhibition of CsA binding to Cyclophilin A: 94.91%

## C/C=C/C[C@@H](C)[C@@H](O)[C@H]1C(=O)N[C@@H](CC)C(=O)N(C)CC(=O)N(C)CC(=O)N[C@@H](CC(C)C)C(=O)N(C)[C@@H](CC(C)C)C(=O)N[C@@H](CC(C)C)C(=O)N[C@H](C)C(=O)N(C)[C@@H](CC(C)C)C(=O)N(C)[C@@H](CC(C)C)C(=O)N(C)[C@@H](C(C)C)C(=O)N1C [Compound C61] (cyclo([MeBmt][Abu][Sar][Sar]L[NMeL]L[dA][NMeL][NMeL][NMeV]))
  % signal: 14.38%
  IC50: < 2000 nM
  % inhibition of CsA binding to Cyclophilin A: 85.62%

## C/C=C/C[C@@H](C)[C@@H](O)[C@H]1C(=O)N[C@@H](CC)C(=O)N(C)CC(=O)N(C)[C@H](C)C(=O)N[C@@H](CC(C)C)C(=O)N(C)[C@@H](CC(C)C)C(=O)N[C@@H](CC(C)C)C(=O)N[C@H](C)C(=O)N(C)[C@@H](CC(C)C)C(=O)N(C)[C@@H](CC(C)C)C(=O)N(C)[C@@H](C(C)C)C(=O)N1C [Compound C59] (cyclo([MeBmt][Abu][Sar][dNMeA]L[NMeL]L[dA][NMeL][NMeL][NMeV]))
  % signal: 11.76%
  IC50: < 2000 nM
  % inhibition of CsA binding to Cyclophilin A: 88.24%

## C/C=C/C[C@@H](C)[C@@H](O)[C@H]1C(=O)N[C@@H](CC)C(=O)N(C)CC(=O)N(C)[C@@H]([C@@H](C)O)C(=O)N[C@@H](C(C)(C)C)C(=O)N(C)[C@@H](C)C(=O)N[C@@H](CC(C)C)C(=O)N[C@H](C)C(=O)N(C)[C@@H](CC(C)C)C(=O)N(C)[C@@H](CC(C)C)C(=O)N(C)[C@@H](C(C)C)C(=O)N1C [Compound C75] (cyclo([MeBmt][Abu][Sar][NMeT][Tle][NMeA]L[dA][NMeL][NMeL][NMeV]))
  % signal: 3.88%
  IC50: < 2000 nM

## C/C=C/C[C@@H](C)[C@@H](O)[C@H]1C(=O)N[C@@H](CC)C(=O)N(C)CC(=O)N(C)[C@@H](Cc2ccccc2)C(=O)N[C@@H](C(C)C)C(=O)N(C)CC(=O)N[C@@H](C)C(=O)N[C@H](C)C(=O)N(C)[C@@H](CC(C)C)C(=O)N(C)[C@@H](CC(C)C)C(=O)N(C)[C@@H](C(C)C)C(=O)N1C [Compound C27] (cyclo([MeBmt][Abu][Sar][NMeF]V[Sar]A[dA][NMeL][NMeL][NMeV]))
  % signal: 5.27%
  IC50: < 2000 nM
  % inhibition of CsA binding to Cyclophilin A: 94.73%

## C/C=C/C[C@@H](C)[C@@H](O)[C@H]1C(=O)N[C@@H](CC)C(=O)N(C)CC(=O)N(C)[C@@H](CCC)C(=O)N[C@@H](C(C)(C)C)C(=O)N(C)[C@@H](C)C(=O)N[C@@H](CC(C)C)C(=O)N[C@H](C)C(=O)N(C)[C@@H](CC(C)C)C(=O)N(C)[C@@H](CC(C)C)C(=O)N(C)[C@@H](C(C)C)C(=O)N1C [Compound C78] (cyclo([MeBmt][Abu][Sar][NMeNva][Tle][NMeA]L[dA][NMeL][NMeL][NMeV]))
  % signal: 1.42%
  IC50: < 2000 nM
  % inhibition of CsA binding to Cyclophilin A: 98.58%
